Columns and labels:
PRMT5 [1] = target: T1, PRMT5 (Homo sapiens, UniProt O14744); test: PRMT5 biochemical IC50 assay with SAM as cofactor; settings: PRMT5, SAM as cofactor; read-out: SAM IC50
T1 construct: purchased Viva (custom protein)

PRMT5 [2] = target: T1, PRMT5; test: PRMT5 biochemical IC50 assay with no cofactor; settings: PRMT5, no cofactor
Excerpt: Table 1 indicates IC50 values (μM) against PRMT5 for exemplary compounds in the presence of SAM as cofactor, with no cofactor, and with MTA as cofactor, respectively (columns 4-6). […] Ki values can be calculated from the IC50 values as described in the Examples section. As detailed in the Examples section, for the assay performed in the presence of SAM, IC50=Ki×1.5 (Ki=IC50/1.5).

PRMT5 [3] = target: T1, PRMT5; test: PRMT5 biochemical IC50 assay with MTA as cofactor; settings: PRMT5, MTA as cofactor; read-out: MTA IC50
[4] = test system: HAP1 MTAP-intact cell line; test: SDMA in-cell western assay, HAP1 MTAP-intact; assay type: cell-based; settings: Homo sapiens, HAP1, SDMA in-cell western, HAP1 MTAP-intact; read-out: MTAP HAP1 intact IC50
Outline: (§1)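 IC50 values come from SDMA signal quantified by in-cell western in two HAP1 lines, one with native MTAP levels and one lacking MTAP.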

[5] = test system: HAP1 MTAP-deleted cell line; test: SDMA in-cell western assay, HAP1 MTAP-deleted; assay type: cell-based; settings: for IC50: Homo sapiens, HAP1, SDMA in-cell western, HAP1 MTAP-deleted; for MTAP intact/deleted ratio: SDMA in-cell western
Outline: as §1

[6] = test system: HAP1 MTAP-deleted cell line; test: Viability assay, MTAP-deleted cell line; assay type: cell-based; settings: Homo sapiens, read-out: HAP1 MTAP deleted viability
Excerpt: Table 1 additionally indicates IC50 values in a viability assay for the MTAP-deleted cell line (column 10), indicating the effect of treatment with compound on cell survival.

[7] = read-out: HAP1 MTAP deleted IC50
[8] = IC50 ratio HAP1 MTAP-intact vs HAP1 MTAP-deleted
[9] = HAP1, viability assay, MTAP-deleted cell line
[10] = read-out: No Cofactor/ rel IC50
[11] = read-out: HAP 1 MTAP deleted IC50
[12] = IC50 ratio HAP1 MTAP-intact / HAP1 MTAP-deleted
[13] = HAP1, viability, HAP1 MTAP-deleted cell line

T1 sequence (O14744 whole entry): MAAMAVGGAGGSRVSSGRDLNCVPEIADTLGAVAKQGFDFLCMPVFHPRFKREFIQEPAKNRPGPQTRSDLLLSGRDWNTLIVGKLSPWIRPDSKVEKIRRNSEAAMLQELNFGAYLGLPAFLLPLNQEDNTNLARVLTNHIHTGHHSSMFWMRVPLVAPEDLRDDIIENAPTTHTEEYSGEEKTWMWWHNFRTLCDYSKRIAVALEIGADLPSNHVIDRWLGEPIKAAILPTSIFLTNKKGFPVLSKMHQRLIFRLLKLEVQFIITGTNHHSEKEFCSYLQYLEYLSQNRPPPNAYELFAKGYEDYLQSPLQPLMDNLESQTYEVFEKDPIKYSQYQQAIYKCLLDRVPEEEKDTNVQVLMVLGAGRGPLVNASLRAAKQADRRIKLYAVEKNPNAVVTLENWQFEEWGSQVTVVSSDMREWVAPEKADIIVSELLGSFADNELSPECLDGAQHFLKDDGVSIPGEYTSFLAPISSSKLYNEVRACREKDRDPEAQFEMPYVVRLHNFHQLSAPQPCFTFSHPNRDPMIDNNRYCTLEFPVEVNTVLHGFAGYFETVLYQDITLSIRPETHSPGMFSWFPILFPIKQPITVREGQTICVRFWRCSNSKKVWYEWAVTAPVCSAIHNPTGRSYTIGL
T1 sequence (Q9BQA1 whole entry partner): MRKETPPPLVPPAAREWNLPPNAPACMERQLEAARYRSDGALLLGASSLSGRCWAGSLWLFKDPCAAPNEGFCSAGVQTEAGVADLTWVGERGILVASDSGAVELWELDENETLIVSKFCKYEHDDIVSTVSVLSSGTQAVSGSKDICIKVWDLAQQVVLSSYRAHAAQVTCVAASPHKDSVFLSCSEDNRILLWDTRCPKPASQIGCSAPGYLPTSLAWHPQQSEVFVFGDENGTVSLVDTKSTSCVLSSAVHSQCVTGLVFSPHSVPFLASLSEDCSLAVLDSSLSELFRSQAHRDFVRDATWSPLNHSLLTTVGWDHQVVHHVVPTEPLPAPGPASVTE

`COc1ncc(NC(=O)C(=O)N2C[C@@H](C)CC[C@@H]2c2ccc3sc([C@H]4CCN(C)C[C@@H]4C)nc3c2)cc1C(N)=O` (racemic) [Compound 1168, 2-methoxy-5-[[2-oxo-2-[rac-(2R,5S)-5-methyl-2-[2-[rac-(3R,4S)-1,3-dimethyl-4-piperidyl]-1,3-benzothiazol-5-yl]-1-piperidyl]acetyl]amino]pyridine-3-carboxamide] was tested, and the IC50 (PRMT5 [1]) was under 50 nM, the IC50 (PRMT5 [2]; read-out: No Cofactor/rel IC50) was under 50 nM and the IC50 (PRMT5 [3]) was under 50 nM. The IC50 [4] was under 100 nM, the IC50 [5, 7] was under 100 nM and the MTAP intact/deleted ratio [5, 8] was “A (an IC50 ratio greater than or equal to 10 fold)”. It also gave an IC50 [6, 9] of under 1000 nM.

Molecule `CCc1cc(NC(=O)C(=O)N2C[C@@H](C)[C@H](OC)C[C@@H]2c2cccc(OCCN(C)C)c2)cnc1N` (racemic) [Compound 1172, N-(6-amino-5-ethyl-3-pyridyl)-2-oxo-2-[rac-(2R,4R,5R)-2-[3-[2-(dimethylamino)ethoxy]phenyl]-4-methoxy-5-methyl-1-piperidyl]acetamide] has an IC50 (PRMT5 [1]) of 50 to 500 nM, an IC50 (PRMT5 [2]; read-out: No Cofactor/rel IC50) of 50 to 500 nM and an IC50 (PRMT5 [3]) of under 50 nM. The IC50 [4] was 100 to 1000 nM, the IC50 [5, 7] was under 100 nM and the MTAP intact/deleted ratio [5, 8] was “A (an IC50 ratio greater than or equal to 10 fold)”. It also gave an IC50 [6, 9] of under 1000 nM.

`CCc1nc2cc([C@@H]3CC[C@@H](C)CN3C(=O)C(=O)Nc3cnc(N)c(C)c3)ccc2s1` (racemic) [Compound 1184, N-(6-amino-5-methylpyridin-3-yl)-2-(2-(2-ethylbenzo[d]thiazol-5-yl)-5-methylpiperidin-1-yl)-2-oxoacetamide] showed an IC50 (PRMT5 [1]) of 50 to 500 nM, an IC50 (PRMT5 [2]; read-out: No Cofactor/rel IC50) of 50 to 500 nM and an IC50 (PRMT5 [3]) of 50 to 500 nM. The IC50 [4] was 100 to 1000 nM, the IC50 [5, 7] was under 100 nM and the MTAP intact/deleted ratio [5, 8] was “A (an IC50 ratio greater than or equal to 10 fold)”. For the same molecule, the IC50 [6, 9] was under 1000 nM.

In the case of `COc1ncc(NC(=O)C(=O)N2C[C@@H](C)CC[C@@H]2c2ccc3sc([C@H]4CCN(C)C[C@H]4C)nc3c2)cc1C(N)=O` (racemic) [Compound 1185, 2-methoxy-5-[[2-oxo-2-[rac-(2R,5S)-5-methyl-2-[2-[rac-(3S,4S)-1,3-dimethyl-4-piperidyl]-1,3-benzothiazol-5-yl]-1-piperidyl]acetyl]amino]pyridine-3-carboxamide], the IC50 (PRMT5 [1]) is reported as under 50 nM, the IC50 (PRMT5 [2]; read-out: No Cofactor/rel IC50) is reported as under 50 nM and the IC50 (PRMT5 [3]) is reported as under 50 nM. The IC50 [4] was under 100 nM, the IC50 [5, 7] was under 100 nM and the MTAP intact/deleted ratio [5, 8] was “A (an IC50 ratio greater than or equal to 10 fold)”. It also gave an IC50 [6, 9] of under 1000 nM.

`CCc1cc(NC(=O)C(=O)N2C[C@@H](C)CC[C@@H]2c2ccc(N3CCN(C)CC3)cc2)cnc1N` (racemic) [Compound 1209, rac-N-(6-Amino-5-ethyl-3-pyridyl)-2-[(2S,5R)-5-methyl-2-[4-(4-methylpiperazin-1-yl)phenyl]-1-piperidyl]-2-oxo-acetamide] showed an IC50 (PRMT5 [1]) of 50 to 500 nM, an IC50 (PRMT5 [2]; read-out: No Cofactor/rel IC50) of 50 to 500 nM and an IC50 (PRMT5 [3]) of under 50 nM. The IC50 [4] was 100 to 1000 nM, the IC50 [5, 7] was under 100 nM and the MTAP intact/deleted ratio [5, 8] was “A (an IC50 ratio greater than or equal to 10 fold)”. The IC50 [6, 9] was under 1000 nM.

Molecule `Cc1cc(NC(=O)C(=O)N2C[C@H](C)CC[C@H]2c2cccc(N3CCN(C)CC3)c2)cnc1N` (racemic) [Compound 1223, N-(6-amino-5-methylpyridin-3-yl)-2-(5-methyl-2-(3-(4-methylpiperazin-1-yl)phenyl)piperidin-1-yl)-2-oxoacetamide] has an IC50 (PRMT5 [1]) of 50 to 500 nM, an IC50 (PRMT5 [2]; read-out: No Cofactor/rel IC50) of 50 to 500 nM and an IC50 (PRMT5 [3]) of under 50 nM. For the same molecule, the IC50 [4] was 100 to 1000 nM, the IC50 [5, 7] was under 100 nM and the MTAP intact/deleted ratio [5, 8] was “A (an IC50 ratio greater than or equal to 10 fold)”. For the same molecule, the IC50 [6, 9] was under 1000 nM.

`CCc1cc(NC(=O)C(=O)N2CC(C)CCC2c2ccc3sc(C4CCN(C)CC4C)nc3c2)cnc1N` (racemic) [Compound 1227, N-(6-amino-5-ethyl-3-pyridyl)-2-oxo-2-[rac-(2R,5S)-5-methyl-2-[2-[rac-(3S,4R)-1,3-dimethyl-4-piperidyl]-1,3-benzothiazol-5-yl]-1-piperidyl]acetamide] was tested, and the IC50 (PRMT5 [1]) was under 50 nM, the IC50 (PRMT5 [2]; read-out: No Cofactor/rel IC50) was under 50 nM and the IC50 (PRMT5 [3]) was under 50 nM. The IC50 [4] was under 100 nM, the IC50 [5, 7] was under 100 nM and the MTAP intact/deleted ratio [5, 8] was “A (an IC50 ratio greater than or equal to 10 fold)”. For the same molecule, the IC50 [6, 9] was under 1000 nM.

With `Cc1cc(NC(=O)C(=O)N2C[C@H](C)CC[C@H]2c2ccc(CCN(C)C)cc2)cnc1N` (racemic) [Compound 1233, N-(6-amino-5-methyl-3-pyridyl)-2-[2-[4-[2-(dimethylamino)ethyl]phenyl]-5-methyl-1-piperidyl]-2-oxo-acetamide] the IC50 (PRMT5 [1]) was 50 to 500 nM, the IC50 (PRMT5 [2]; read-out: No Cofactor/rel IC50) was 50 to 500 nM and the IC50 (PRMT5 [3]) was under 50 nM. For the same molecule, the IC50 [4] was 100 to 1000 nM, the IC50 [5, 7] was under 100 nM and the MTAP intact/deleted ratio [5, 8] was “B (an IC50 ratio greater than or equal to 3 fold but lower than 10 fold)”. The IC50 [6, 9] was under 1000 nM.

`CCc1cc(NC(=O)C(=O)N2C[C@@H](C)CC[C@@H]2c2ccc3nn(C4CN(C)C4)cc3c2)cnc1N` (racemic) [Compound 1239, N-(6-Amino-5-ethyl-3-pyridyl)-2-oxo-2-[rac-(2R,5S)-5-methyl-2-[2-(1-methylazetidin-3-yl)indazol-5-yl]-1-piperidyl]acetamide] was tested, and the IC50 (PRMT5 [1]) was 50 to 500 nM, the IC50 (PRMT5 [2]; [10]) was under 50 nM and the IC50 (PRMT5 [3]) was under 50 nM. The IC50 [4] was 100 to 1000 nM, the IC50 [5, 11] was under 100 nM and the “MTAP intact/deleted ratio” value [5, 12] was “A (an IC50 ratio greater than or equal to 10 fold)”. The IC50 [6, 13] was under 1000 nM.

For `COc1ncc(NC(=O)C(=O)N2C[C@@H](C)CC[C@@H]2c2ccc3sc([C@H]4CCN(C)C4)nc3c2)cc1C(N)=O` (racemic) [Compound 1260, 2-methoxy-5-[[2-oxo-2-[rac-(2R,5S)-5-methyl-2-[2-[rac-(3S)-1-methylpyrrolidin-3-yl]-1,3-benzothiazol-5-yl]-1-piperidyl]acetyl]amino]pyridine-3-carboxamide], the IC50 (PRMT5 [1]) was under 50 nM, the IC50 (PRMT5 [2]; [10]) was under 50 nM and the IC50 (PRMT5 [3]) was under 50 nM. The IC50 [4] was under 100 nM, the IC50 [5, 11] was under 100 nM and the “MTAP intact/deleted ratio” value [5, 12] was “A (an IC50 ratio greater than or equal to 10 fold)”. It also gave an IC50 [6, 13] of under 1000 nM.

For `CCc1cc(NC(=O)C(=O)N2C[C@@H](C)CC[C@@H]2c2ccc3c(c2)C(=O)N(C2CCN(C)CC2)C3)cnc1N` (racemic) [Compound 1272, N-(6-amino-5-ethyl-3-pyridyl)-2-oxo-2-[rac-(2R,5S)-5-methyl-2-[2-(1-methyl-4-piperidyl)-3-oxo-isoindolin-5-yl]-1-piperidyl]acetamide], the IC50 (PRMT5 [1]) was 50 to 500 nM, the IC50 (PRMT5 [2]; [10]) was under 50 nM and the IC50 (PRMT5 [3]) was under 50 nM. The IC50 [4] was 100 to 1000 nM, the IC50 [5, 11] was under 100 nM and the “MTAP intact/deleted ratio” value [5, 12] was “A (an IC50 ratio greater than or equal to 10 fold)”. The IC50 [6, 13] was under 1000 nM.

In the case of `COc1ncc(NC(=O)C(=O)N2C[C@@H](C)CC[C@@H]2c2ccc3sc([C@@H]4CCN(C)C4)nc3c2)cc1C(N)=O` (racemic) [Compound 1278, 2-methoxy-5-[[2-oxo-2-[rac-(2R,5S)-5-methyl-2-[2-[rac-(3R)-1-methylpyrrolidin-3-yl]-1,3-benzothiazol-5-yl]-1-piperidyl]acetyl]amino]pyridine-3-carboxamide], the IC50 (PRMT5 [1]) is reported as under 50 nM, the IC50 (PRMT5 [2]; [10]) is reported as under 50 nM and the IC50 (PRMT5 [3]) is reported as under 50 nM. For the same molecule, the IC50 [4] was under 100 nM, the IC50 [5, 11] was under 100 nM and the “MTAP intact/deleted ratio” value [5, 12] was “A (an IC50 ratio greater than or equal to 10 fold)”. It also gave an IC50 [6, 13] of under 1000 nM.

Source: patent publication US11999727B2 (Tango Therapeutics, Inc., priority 2020, dated 2024)
